Experiment [1] deals with Plasmodium falciparum. Briefly: Antiplasmodial activity against erythrocytic stage of chloroquine-resistant Plasmodium falciparum W2 measured after 48 hrs by flow cytometry. In kind it is functional, organism-based. To be noted: W2, 48 h. Background: Flow cytometry measures light scatter and fluorescence of single cells or particles in a stream.
The subject of the next experiment is Plasmodium berghei. The experiment is described as follows: Antiplasmodial activity against hepatic stage Plasmodium berghei infected in Huh-7 cells assessed as cell viability incubated for 1 hrs and measured by 48 hrs by bioluminescence assay. It is filed as functional, organism-based.
For experiment [2], the system named is Plasmodium falciparum. The experiment is described as follows: Inhibition of plasmodium falciparum 3D7 ATP4 ATPase activity under high-soidum conditions at 125 nM.
Experiment [3] concerns Plasmodium falciparum. Briefly: Antiplasmodial activity against Plasmodium falciparum 3D7 assessed as effect on cytosolic sodium concentration at 50 nM measured after 90 mins by SBFI-dye based fluorescence method. In kind it is functional, organism-based.
In experiment [4] the test system is Plasmodium falciparum. Briefly: Inhibition of plasmodium falciparum 3D7 ATP4 ATPase activity under high-soidum conditions at 50 uM.
Experiment [5] relates to Plasmodium falciparum. The experiment is described as follows: Inhibition of plasmodium falciparum 3D7 ATP4 ATPase activity under low-soidum conditions at 50 uM.
The test system of experiment [6] is Plasmodium falciparum. The experiment is described as follows: Antiplasmodial activity against Plasmodium falciparum 3D7 measured after 72 hrs by parasite proliferation assay. To be noted: 3D7, 72 h. It is filed as functional, organism-based.

Calls of active or inactive are those of the source. The rule behind the calls is not given here.

As to `O=C1Nc2ccc(Br)cc2C12OC(c1ccc(Cl)cc1)=NN2c1ccccc1` (stereo unspecified), the half-inhibitory concentration (IC50) (in general, the concentration that gives 50% inhibition) in the experiment with Plasmodium falciparum [1] is over 10 µM. On to `CC(C)(C)C1=NN(c2cccc(Cl)c2)C2(O1)C(=O)Nc1ccc(Br)cc12` (stereo unspecified), for which the IC50 came out at 7.5 µM in the experiment with Plasmodium falciparum [1] and 9 µM with Plasmodium berghei. In the experiment on Plasmodium falciparum [1], `COc1ccc(C2=NN(c3ccccc3)C3(O2)C(=O)Nc2ccc(Cl)cc23)cc1` (stereo unspecified) registered an IC50 of over 10 µM.

As to `O=C1Nc2c(Cl)cccc2C12OC(c1ccccc1)=NN2c1ccc(Cl)cc1` (stereo unspecified), the concentration for half-maximal inhibition (IC50) in the experiment with Plasmodium falciparum [1] is 7.6 µM; in the experiment on Plasmodium berghei, over 10 µM. For `O=C1Nc2ccc(Cl)cc2C12OC(c1ccccc1)=NN2c1cccc(Cl)c1` (stereo unspecified) the same measures were 6.4 µM and 7 µM. In turn, `COc1ccc(C2=NN(c3ccccc3)C3(O2)C(=O)Nc2c(Cl)cccc23)cc1` (stereo unspecified) showed an IC50 with Plasmodium falciparum [1] of over 10 µM. Still for that read-out and setting: under `O=C1Nc2ccc(Br)cc2C12OC(c1cccc(Cl)c1)=NN2c1ccccc1` (stereo unspecified) stands over 10 µM.

`O=C1Nc2c(Cl)cccc2C12OC(c1ccccc1)=NN2c1cccc(Cl)c1` (stereo unspecified) registered a half-maximal inhibitory concentration (IC50) in the experiment on Plasmodium falciparum [1] of over 10 µM. On the same count and under the same terms, the value for `O=C1Nc2ccccc2C12OC(c1ccccc1)=NN2c1cccc(Cl)c1` (stereo unspecified) was over 10 µM; that for `O=C1Nc2ccc(Cl)cc2C12OC(c1ccc(Cl)cc1)=NN2c1ccccc1` (stereo unspecified) was over 10 µM. The molecule `COc1ccc(C2=NN(c3ccccc3)C3(O2)C(=O)Nc2ccccc23)cc1` (stereo unspecified) returned a 50% inhibitory concentration (IC50) in the experiment with Plasmodium falciparum [1] of over 10 µM. As to `CC(C)(C)C1=NN(c2cccc(Cl)c2)C2(O1)C(=O)Nc1cc(Cl)ccc12` (stereo unspecified), the IC50 was 3.8 µM with Plasmodium falciparum [1] and over 10 µM in the experiment on Plasmodium berghei.

As to `O=C1Nc2ccc(Br)cc2C12OC(c1ccccc1)=NN2c1cccc(Cl)c1` (stereo unspecified), the figures for the half-inhibitory concentration (IC50) with Plasmodium falciparum [1] and in the experiment on Plasmodium berghei were 6.7 µM and 3.9 µM, respectively. In the experiment with Plasmodium falciparum [1], `CC(C)(C)C1=NN(c2ccccc2Cl)C2(O1)C(=O)Nc1ccc(Br)cc12` (stereo unspecified) showed an IC50 of over 10 µM. `O=C1Nc2cc(Br)ccc2C12OC(c1ccccc1)=NN2c1cccc(Cl)c1` (stereo unspecified) came in with a half-maximal inhibitory concentration (IC50) with Plasmodium falciparum [1] of over 10 µM.

As for `CC(C)(C)C1=NN(c2cccc(Cl)c2)C2(O1)C(=O)Nc1ccc(Cl)cc12` (stereo unspecified), the half-inhibitory concentration (IC50) in the experiment on Plasmodium falciparum [1] came to 3.5 µM; in the experiment on Plasmodium berghei it was 5.3 µM.

In the experiment with Plasmodium falciparum [1], `CC(C)(C)C1=NN(c2ccccc2Cl)C2(O1)C(=O)Nc1ccc(Cl)cc12` (stereo unspecified) displayed a 50% inhibitory concentration (IC50) of over 10 µM. As to `C[C@H]1Cc2c([nH]c3cc(Cl)c(F)cc23)[C@@]2(N1)C(=O)Nc1ccc(Cl)cc12`, the inhibition entry in the experiment with Plasmodium falciparum [2] was “Active”. In addition, in the experiment with Plasmodium falciparum [3], the result was Active.

The molecule `O=C1Nc2c(Cl)cccc2C12OC(c1cccc(Cl)c1)=NN2c1cccc(Cl)c1` (stereo unspecified) gave an IC50 with Plasmodium falciparum [1] of over 10 µM. Still for that read-out and setting: the value for `O=C1Nc2ccccc2C12OC(c1cccc(Cl)c1)=NN2c1ccccc1` (stereo unspecified) was over 10 µM. For `O=C1Nc2ccc(Br)cc2C12OC(c1ccccc1)=NN2c1ccc(Cl)cc1` (stereo unspecified), the inhibition entry in the experiment on Plasmodium falciparum [4] and in the experiment with Plasmodium falciparum [5] was “Active” throughout. The values for the IC50 with Plasmodium falciparum [1], in the experiment with Plasmodium berghei and in the experiment with Plasmodium falciparum [6] were 6 µM, 4.1 µM and 6.2 µM, respectively. As to `COc1ccc(C2=NN(c3ccccc3)C3(O2)C(=O)Nc2ccc(Br)cc23)cc1` (stereo unspecified), the IC50 with Plasmodium falciparum [1] is 8.3 µM; with Plasmodium berghei, over 10 µM.

`CC(C)(C)C1=NN(c2cccc(Cl)c2)C2(O1)C(=O)Nc1cc(Br)ccc12` (stereo unspecified): the 50% inhibitory concentration (IC50) came to 4.6 µM with Plasmodium falciparum [1] and 9.5 µM in the experiment on Plasmodium berghei. With `O=C1Nc2cc(Cl)ccc2C12OC(c1ccccc1)=NN2c1cccc(Cl)c1` (stereo unspecified), the IC50 stood at 8.6 µM with Plasmodium falciparum [1] and 7.2 µM with Plasmodium berghei.

In the experiment on Plasmodium falciparum [1], `O=C1Nc2c(Cl)cccc2C12OC(c1cccc(Cl)c1)=NN2c1ccccc1` (stereo unspecified) returned an IC50 of over 10 µM.

As for `O=C1Nc2c(Cl)cccc2C12OC(c1ccc(Cl)cc1)=NN2c1ccccc1` (stereo unspecified), the 50% inhibitory concentration (IC50) in the experiment with Plasmodium falciparum [1] is over 10 µM. Same read-out and setting: the value for `O=C1Nc2ccc(Cl)cc2C12OC(c1cccc(Cl)c1)=NN2c1ccccc1` (stereo unspecified) was over 10 µM.

(Values after ChEMBL document CHEMBL5154843, “Discovery of spirooxadiazoline oxindoles with dual-stage antimalarial activity” (Eur J Med Chem, 2022).)
